In PubChem BioAssay (NCI):
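Assay format: 96-well plates, 48-hour exposure. GI50 = concentration required for 50% inhibition of growth. TGI: concentration producing complete growth inhibition.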

How the values were obtained:
Assay in all cases: NCI-60 cell line screen, 48 h
[1] = system: 786-0 renal
[2] = system: A498 renal
[3] = system: A549 NSCLC
[4] = system: ACHN renal
[5] = system: BT-549 breast
[6] = system: CAKI-1 renal
[7] = system: CCRF-CEM leukemia
[8] = system: COLO 205 colon
[9] = system: DU-145 prostate
[10] = system: EKVX NSCLC
[11] = system: HCC-2998 colon
[12] = system: HCT-116 colon
[13] = system: HCT-15 colon
[14] = system: HL-60(TB) leukemia
[15] = system: HOP-62 NSCLC
[16] = system: HOP-92 NSCLC
[17] = system: HS 578T breast
[18] = system: HT29 colon
[19] = system: IGROV1 ovarian
[20] = system: K-562 leukemia
[21] = system: KM12 colon
[22] = system: LOX IMVI melanoma
[23] = system: M14 melanoma
[24] = system: MALME-3M melanoma
[25] = system: MCF7 breast
[26] = system: MDA-MB-231 breast
[27] = system: MDA-MB-435
[28] = system: MOLT-4 leukemia
[29] = system: NCI-H226 lung
[30] = system: NCI-H23 lung
[31] = system: NCI-H460 lung
[32] = system: NCI-H522 lung
[33] = system: NCI/ADR-RES ovarian
[34] = system: OVCAR-3 ovarian
[35] = system: OVCAR-4 ovarian
[36] = system: OVCAR-5 ovarian
[37] = system: OVCAR-8 ovarian
[38] = system: PC-3 prostate
[39] = system: RPMI-8226 leukemia
[40] = system: RXF 393 renal
[41] = system: SF-268 CNS
[42] = system: SF-295 CNS
[43] = system: SF-539 CNS
[44] = system: SK-MEL-2 melanoma
[45] = system: SK-MEL-28 melanoma
[46] = system: SK-MEL-5 melanoma
[47] = system: SK-OV-3 ovarian
[48] = system: SN12C renal
[49] = system: SNB-19 CNS
[50] = system: SNB-75 CNS
[51] = system: SR leukemia
[52] = system: SW-620 colon
[53] = system: T-47D breast
[54] = system: TK-10 renal
[55] = system: U251 CNS
[56] = system: UACC-257 melanoma
[57] = system: UACC-62 melanoma
[58] = system: UO-31 renal

O=C(/C(=C/c1ccccc1)CN1CCCCC1)c1ccccc1
GI50 [1]: 1790 nM
TGI [1]: 3640 nM
GI50 [2]: 1630 nM
TGI [2]: 3100 nM
GI50 [3]: 1840 nM
TGI [3]: 3920 nM
GI50 [4]: 518 nM
TGI [4]: 1440 nM
GI50 [5]: 1920 nM
TGI [5]: 3850 nM
GI50 [6]: 337 nM
TGI [6]: 2840 nM
GI50 [7]: 346 nM
TGI [7]: > 45300 nM
GI50 [8]: 447 nM
TGI [8]: 1410 nM
GI50 [9]: 1520 nM
TGI [9]: 5780 nM
GI50 [10]: 2510 nM
TGI [10]: 9230 nM
GI50 [11]: 1680 nM
TGI [11]: 3110 nM
GI50 [12]: 468 nM
TGI [12]: 1440 nM
GI50 [13]: 617 nM
TGI [13]: 3340 nM
GI50 [14]: 1220 nM
TGI [14]: 10200 nM
GI50 [15]: 2880 nM
TGI [15]: 9930 nM
GI50 [16]: 2680 nM
TGI [16]: 6740 nM
GI50 [17]: 5030 nM
TGI [17]: 65600 nM
GI50 [18]: 518 nM
TGI [18]: 1270 nM
GI50 [19]: 1890 nM
TGI [19]: 6250 nM
GI50 [20]: 566 nM
TGI [20]: > 33600 nM
GI50 [21]: 2090 nM
TGI [21]: 6880 nM
GI50 [22]: 364 nM
TGI [22]: 1500 nM
GI50 [23]: 1230 nM
TGI [23]: 2880 nM
GI50 [24]: 1160 nM
TGI [24]: 3580 nM
GI50 [25]: 464 nM
TGI [25]: 2850 nM
GI50 [26]: 1960 nM
TGI [26]: 5750 nM
GI50 [27]: 570 nM
TGI [27]: 5210 nM
GI50 [28]: 403 nM
TGI [28]: 31800 nM
GI50 [29]: 1530 nM
TGI [29]: 3820 nM
GI50 [30]: 1490 nM
TGI [30]: 4300 nM
GI50 [31]: 2050 nM
TGI [31]: 4910 nM
GI50 [32]: 365 nM
TGI [32]: 884 nM
GI50 [33]: 1060 nM
TGI [33]: 4640 nM
GI50 [34]: 679 nM
TGI [34]: 2160 nM
GI50 [35]: 2050 nM
TGI [35]: 9530 nM
GI50 [36]: 1980 nM
TGI [36]: 3980 nM
GI50 [37]: 616 nM
TGI [37]: 4290 nM
GI50 [38]: 2200 nM
TGI [38]: 9260 nM
GI50 [39]: 800 nM
TGI [39]: 5130 nM
GI50 [40]: 481 nM
TGI [40]: 1210 nM
GI50 [41]: 2630 nM
TGI [41]: 15000 nM
GI50 [42]: 2420 nM
TGI [42]: 7080 nM
GI50 [43]: 2800 nM
TGI [43]: 10100 nM
GI50 [44]: 1600 nM
TGI [44]: 4010 nM
GI50 [45]: 1630 nM
TGI [45]: 3500 nM
GI50 [46]: 1430 nM
TGI [46]: 2940 nM
GI50 [47]: 2750 nM
TGI [47]: 7690 nM
GI50 [48]: 1670 nM
TGI [48]: 4760 nM
GI50 [49]: 3900 nM
TGI [49]: 15700 nM
GI50 [50]: 3760 nM
TGI [50]: 17800 nM
GI50 [51]: 271 nM
TGI [51]: 5780 nM
GI50 [52]: 398 nM
TGI [52]: 1530 nM
GI50 [53]: 801 nM
TGI [53]: 3200 nM
GI50 [54]: 662 nM
TGI [54]: 1740 nM
GI50 [55]: 1350 nM
TGI [55]: 3220 nM
GI50 [56]: 1250 nM
TGI [56]: 3350 nM
GI50 [57]: 1420 nM
TGI [57]: 4360 nM
GI50 [58]: 996 nM
TGI [58]: 2300 nM
